According to US8546376B2, “Pharmaceutical compounds” (Almac Discovery Limited, priority 2009, dated 2013):
Structures can show the parent of a compound that is named as a salt.

Tests used:
Type in all cases: biochemical
[1] = target: T1, AKT2 (Homo sapiens, UniProt P31751); assay: AKT Kinase Assay (IMAP fluorescent polarisation) vs AKT2; settings: activated AKT2, FAM Crosstide substrate
T1 construct: purchased SignalChem
Protocol: (§1) Testing of the compounds was performed using an AKT Kinase Assay:
(§2) Activated AKT isoforms 1, 2 and 3 were assayed utilising a 5′ FAM Crosstide (Seq. GRPRTSSFAEG-OH). The extent of kinase phosphorylation was determined by fluorescent polarisation using IMAP progressive binding reagent, which introduces binding beads which allow the reagent to specifically bind to phosphate residues via covalent co-ordination complex bonds.
(§3) iMAP binding solution stops Crosstide/kinase interaction and specifically binds phosphorylated substrates. The degree of phosphorylation is determined by fluorescent polarisation (excitation 485 nm; emission 528 nm) or the reduction in speed of rotation of the excited substrate.
(§4) The following materials were used in the assay: • a) Activated AKT isoforms (SignalChem.) dissolved in Complete Reaction buffer at a pre-determined concentration selected so that the assay was carried out in the linear range. • b) AKT substrate peptide: FAM Crosstide (R7110) Molecular Devices, diluted in complete reaction buffer. • c) iMAP Progressive Screening Express Kit (R8127) Molecular Devices • d) Complete Reaction Buffer containing 0.1% BSA, 10 mM Tris-HCl, 10 mM MgCl2, 0.05% NaN3 and 0.01% phosphate free BSA, 1 mM DTT • e) Progressive Binding Solution containing 75% Buffer A, 25% Buffer B and low volume Binding Reagent which contains the binding entity for the assay • f) ATP diluted in complete reaction buffer • g) Black polystyrene 384 well assay plates (Nunc). • h) Biotek Synergy 4 Hybrid Plate reader.
(§5) 5 μl of test compound was dissolved in DMSO (Sigma Aldrich) and serially diluted in complete reaction buffer to give a fourteen point half log dose response and plated into 384 well black plates. The compound was incubated at room temperature with activated AKT isoform (5 μl) at the pre-determined concentration, for 45 minutes.
(§6) 2.5 μl of ATP solution mixed with 2.5 μl of AKT substrate peptide (FAM Crosstide (R7110) Molecular Devices) were dispensed into each well and the plate centrifuged at 1000 rpm for 20 seconds to ensure homogenous mixing of reagents. The reaction mix was incubated in the dark for one hour at room temperature.
(§7) The kinase reaction was stopped by the addition of Progressive Binding Solution and the mixture allowed to equilibrate for one hour in the dark, at room temperature.
(§8) The fluorescent polarisation generated in each well was determined using a […] Synergy 4 Hybrid plate reader. In brief, each reaction solution was excited at 485 nm with the emission measured at 528 nm in both the parallel and perpendicular pathway.
(§9) The polarisation value generated in each well was calculated by Gen5 software (Biotek) and the % inhibition of kinase activity compared to vehicle control was calculated via GraphPad Prism. IC50 values for each compound were calculated by non-linear regression analysis using Prism software.
(§10) All plates were internally controlled by two methods. Firstly, by calculating the signal:noise ratio; based on kinase polarisation without inhibitor and polarisation generated by complete reaction buffer in the absence of activated kinase. Secondly by determining IC50 values generated by known inhibitors of the AKT isoforms.

[2] = target: T2, AKT1 (Homo sapiens, UniProt P31749); assay: AKT Kinase Assay (IMAP fluorescent polarisation) vs AKT1; settings: activated AKT1, FAM Crosstide substrate
T2 construct: purchased SignalChem
T2 sequence (P31749 whole entry): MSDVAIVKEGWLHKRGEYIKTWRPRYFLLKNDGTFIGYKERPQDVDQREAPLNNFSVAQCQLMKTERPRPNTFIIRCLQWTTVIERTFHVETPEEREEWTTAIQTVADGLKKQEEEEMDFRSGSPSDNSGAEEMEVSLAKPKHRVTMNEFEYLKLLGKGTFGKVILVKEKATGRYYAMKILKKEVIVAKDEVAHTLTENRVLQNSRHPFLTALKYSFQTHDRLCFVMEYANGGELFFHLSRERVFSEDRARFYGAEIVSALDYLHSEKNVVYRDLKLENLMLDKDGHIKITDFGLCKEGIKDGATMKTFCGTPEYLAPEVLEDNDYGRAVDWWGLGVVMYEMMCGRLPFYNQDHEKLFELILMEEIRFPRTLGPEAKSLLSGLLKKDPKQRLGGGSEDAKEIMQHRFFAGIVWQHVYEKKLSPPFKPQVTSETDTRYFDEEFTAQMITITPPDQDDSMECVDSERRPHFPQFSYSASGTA
Protocol: as §1, §2, §3, §4, §5, §6, §7, §8, §9, §10

[3] = target: T3, AKT3 (Homo sapiens, UniProt Q9Y243); assay: AKT Kinase Assay (IMAP fluorescent polarisation) vs AKT3; settings: activated AKT3, FAM Crosstide substrate
T3 construct: purchased SignalChem
T3 sequence (Q9Y243 whole entry): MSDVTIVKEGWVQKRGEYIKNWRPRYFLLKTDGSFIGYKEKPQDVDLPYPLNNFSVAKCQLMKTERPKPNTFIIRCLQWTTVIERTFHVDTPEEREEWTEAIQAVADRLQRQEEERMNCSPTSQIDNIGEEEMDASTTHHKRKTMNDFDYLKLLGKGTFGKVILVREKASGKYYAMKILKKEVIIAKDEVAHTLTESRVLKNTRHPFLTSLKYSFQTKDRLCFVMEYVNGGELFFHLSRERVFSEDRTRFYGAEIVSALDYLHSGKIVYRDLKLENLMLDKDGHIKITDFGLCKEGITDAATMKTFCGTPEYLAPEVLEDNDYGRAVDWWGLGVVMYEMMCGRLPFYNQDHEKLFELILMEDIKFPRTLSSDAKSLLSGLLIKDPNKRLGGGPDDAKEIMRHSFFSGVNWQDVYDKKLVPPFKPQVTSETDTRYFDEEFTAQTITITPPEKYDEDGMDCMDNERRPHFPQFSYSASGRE
Protocol: as §1, §2, §3, §4, §5, §6, §7, §8, §9, §10

T1 sequence (P31751 whole entry): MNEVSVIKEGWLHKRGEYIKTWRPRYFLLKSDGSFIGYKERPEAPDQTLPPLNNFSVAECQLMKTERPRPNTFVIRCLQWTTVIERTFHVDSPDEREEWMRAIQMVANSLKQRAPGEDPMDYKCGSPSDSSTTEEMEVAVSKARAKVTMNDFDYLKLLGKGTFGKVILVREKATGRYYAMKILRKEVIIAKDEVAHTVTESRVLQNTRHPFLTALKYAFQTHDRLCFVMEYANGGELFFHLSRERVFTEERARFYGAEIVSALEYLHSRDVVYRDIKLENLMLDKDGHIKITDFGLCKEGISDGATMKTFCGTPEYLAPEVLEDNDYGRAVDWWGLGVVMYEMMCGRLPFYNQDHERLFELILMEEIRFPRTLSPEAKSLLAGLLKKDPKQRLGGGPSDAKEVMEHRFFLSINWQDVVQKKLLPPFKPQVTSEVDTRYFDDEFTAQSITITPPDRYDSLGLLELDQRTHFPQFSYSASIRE

Compound	IC50 [1]	IC50 [2]	IC50 [3]
NC1(c2ccc(-c3c(-c4ccccc4)oc4ccc(OC(F)(F)F)cc4c3=O)cc2)CCC1 [Example 25, 3-[4-(1-Amino-cyclobutyl)-phenyl]-2-phenyl-6-trifluoromethoxy-chromen-4-one]	1 to 10 µM	> 10 µM	> 10 µM
Cn1nc2c3oc(-c4ccccc4)c(-c4ccc(C5(N)CCC5)cc4)c(=O)c3ccn2c1=O [Example 64, 7-[4-(1-Amino-cyclobutyl)-phenyl]-2-methyl-8-phenyl-2H-9-oxa-1,2,3a-triaza-cyclopenta[a]naphthalene-3,6-dione hydrochloride]	≤ 1 µM	≤ 1 µM	≤ 1 µM
NC1(c2ccc(-c3c(-c4ccccc4)oc4c(OC(F)F)nccc4c3=O)cc2)CCC1 [Example 32, 3-[4-(1-Amino-cyclobutyl)-phenyl]-8-difluoromethoxy-2-phenyl-pyrano[2,3-c]pyridin-4-one]	≤ 1 µM	1 to 10 µM	1 to 10 µM
NC(=O)c1ccc2c(=O)c(-c3ccc(C4(N)CCC4)cc3)c(-c3ccccc3)oc2c1 [Example 18, 3-[4-(1-Amino-cyclobutyl)-phenyl]-4-oxo-2-phenyl-4H-chromene-7-carboxylic acid amide]	1 to 10 µM	> 10 µM	> 10 µM
NC1(c2ccc(-c3c(-c4ccccc4)oc4cc5c(cc4c3=O)OCCO5)cc2)CCC1 [Example 8, 7-[4-(1-Amino-cyclobutyl)-phenyl]-6-Phenyl-2,3-dihydro-1,4,5-trioxa-anthracen-8-one]	1 to 10 µM	1 to 10 µM	> 10 µM
CCn1cc2ccc3c(=O)c(-c4ccc(C5(N)CCC5)cc4)c(-c4ccccc4)oc3c2n1 [Example 82, 7-[4-(1-Amino-cyclobutyl)-phenyl]-2-ethyl-8-phenyl-2H-9-oxa-1,2-diaza-cyclopenta[a]naphthalen-6-one hydrochloride]	≤ 1 µM	≤ 1 µM	> 10 µM
Cc1nc2ccc3c(=O)c(-c4ccc(C5(N)CCC5)cc4)c(-c4ccccc4)oc3c2[nH]1 [Example 89, 7-[4-(1-Amino-cyclobutyl)-phenyl]-2-methyl-8-phenyl-1H-chromeno[7,8-d]imidazol-6-one]	≤ 1 µM	≤ 1 µM	1 to 10 µM
COc1cc2c(=O)c(-c3ccc(C4(N)CCC4)cc3)c(-c3ccccc3)oc2cc1C [Example 6, 3-[4-(1-Amino-cyclobutyl)-phenyl]-6-methoxy-7-methyl-2-phenyl-chromen-4-one]	1 to 10 µM	> 10 µM	> 10 µM
NC1(c2ccc(-c3c(-c4ccccc4)oc4c(CCCl)nccc4c3=O)cc2)CCC1 [Example 129, 3-(4-(1-aminocyclobutyl)phenyl)-8-(2-chloroethyl)-2-phenyl-4H-pyrano[2,3-c]pyridin-4-one]	≤ 1 µM	≤ 1 µM	1 to 10 µM
COc1ccc2c(=O)c(-c3ccc(C4(N)CCC4)cc3)c(-c3ccccc3)oc2c1Br [Example 9, 3-[4-(1-Amino-cyclobutyl)-phenyl]-8-bromo-7-methoxy-2-phenyl-chromen-4-one]	≤ 1 µM	≤ 1 µM	1 to 10 µM
CC(C)n1ncc2ccc3c(=O)c(-c4ccc(C5(N)CCC5)cc4)c(-c4ccccc4)oc3c21 [Example 83, 7-[4-(1-Amino-cyclobutyl)-phenyl]-1-isopropyl-8-phenyl-1H-9-oxa-1,2-diaza-cyclopenta[a]naphthalen-6-one hydrochloride]	≤ 1 µM	≤ 1 µM	1 to 10 µM
NC1(c2ccc(-c3c(-c4ccccc4)oc4c(Br)cccc4c3=O)cc2)CCC1 [Example 51, 3-[4-(1-Amino-cyclobutyl)-phenyl]-8-bromo-2-phenyl-chromen-4-one]	≤ 1 µM	≤ 1 µM	≤ 1 µM
CS(=O)(=O)c1ccccc1-c1nccc2c(=O)c(-c3ccc(C4(N)CCC4)cc3)c(-c3ccccc3)oc12 [Example 119, 3-(4-(1-aminocyclobutyl)phenyl)-8-(2-(methylsulfonyl)phenyl)-2-phenyl-4H-pyrano[2,3-c]pyridin-4-one]	1 to 10 µM	1 to 10 µM	> 10 µM
Cc1noc(C)c1-c1cccc2c(=O)c(-c3ccc(C4(N)CCC4)cc3)c(-c3ccccc3)oc12 [Example 78, 3-[4-(1-Amino-cyclobutyl)-phenyl]-8-(3,5-dimethyl-isoxazol-4-yl)-2-phenyl-chromen-4-one]	1 to 10 µM	1 to 10 µM	1 to 10 µM
NC1(c2ccc(-c3c(-c4ccccc4)oc4ccc(-n5ccnc5)cc4c3=O)cc2)CCC1 [Example 22, 3-[4-(1-Amino-cyclobutyl)-phenyl]-6-imidazol-1-yl-2-phenyl-chromen-4-one]	1 to 10 µM	1 to 10 µM	> 10 µM
NC1(c2ccc(-c3c(-c4ccccc4)oc4c(-c5cn[nH]c5)nccc4c3=O)cc2)CCC1 [Example 80, 3-[4-(1-Amino-cyclobutyl)-phenyl]-2-phenyl-8-(1H-pyrazol-4-yl)-pyrano[2,3-c]pyridin-4-one hydrochloride]	≤ 1 µM	≤ 1 µM	≤ 1 µM
Cn1cc(-c2nccc3c(=O)c(-c4ccc(C5(N)CCC5)cc4)c(-c4ccccc4)oc23)cn1 [Example 101, 3-[4-(1-Amino-cyclobutyl)-phenyl]-8-(1-methyl-1H-pyrazol-4-yl)-2-phenyl-pyrano[2,3-c]pyridin-4-one hydrochloride]	≤ 1 µM	≤ 1 µM	≤ 1 µM
COc1cc2oc(-c3ccccc3)c(-c3ccc(C4(N)CCC4)cc3)c(=O)c2cc1C#N [Example 11, 3-[4-(1-Amino-cyclobutyl)-phenyl]-7-methoxy-4-oxo-2-phenyl-4H-chromene-6-carbonitrile]	1 to 10 µM	1 to 10 µM	> 10 µM
COc1ccc2c(=O)c(-c3ccc(C4(N)CCC4)cc3)c(-c3ccccc3)oc2c1-c1cn[nH]c1 [Example 79, 3-[4-(1-Amino-cyclobutyl)-phenyl]-7-methoxy-2-phenyl-8-(1H-pyrazol-4-yl)-chromen-4-one]	≤ 1 µM	≤ 1 µM	≤ 1 µM
NC1(c2ccc(-c3c(-c4ccccc4)oc4c5c(ccc4c3=O)OCC(=O)N5)cc2)CCC1 [Example 109, 8-(4-(1-aminocyclobutyl)phenyl)-9-phenylchromeno[7,8-b][1.4]oxazine-2,7(1H,3H)-dione]	1 to 10 µM	≤ 1 µM	1 to 10 µM
NC1(c2ccc(-c3c(-c4ccccc4)oc4c(ccn5c(=O)[nH]nc45)c3=O)cc2)CCC1 [Example 63, 7-[4-(1-Amino-cyclobutyl)-phenyl]-8-phenyl-2H-9-oxa-1,2,3a-triaza-cyclopenta[a]naphthalene-3,6-dione hydrochloride]	≤ 1 µM	≤ 1 µM	≤ 1 µM
NC1(c2ccc(-c3c(-c4ccccc4)oc4c(ccn5c(=O)[nH]nc45)c3=O)cn2)CCC1 [Example 69, 7-[6-(1-Amino-cyclobutyl)-pyridin-3-yl]-8-phenyl-2H-9-oxa-1,2,3a-triaza-cyclopenta[a]naphthalene-3,6-dione]	1 to 10 µM	≤ 1 µM	> 10 µM
Cn1nc(Cl)c2ccc3c(=O)c(-c4ccc(C5(N)CCC5)cc4)c(-c4ccccc4)oc3c21 [Example 100, 7-[4-(1-Amino-cyclobutyl)-phenyl]-3-chloro-1-methyl-8-phenyl-1H-9-oxa-1,2-diaza-cyclopenta[a]naphthalen-6-one hydrochloride]	1 to 10 µM	≤ 1 µM	1 to 10 µM
NC1(c2ccc(-c3c(-c4ccccc4)oc4c(ccc5[nH]c(=O)oc54)c3=O)cc2)CCC1 [Example 91, 7-[4-(1-Amino-cyclobutyl)-phenyl]-8-phenyl-3H-chromeno[7,8-d]oxazole-2,6-dione]	≤ 1 µM	≤ 1 µM	> 10 µM
NC1(c2ccc(-c3c(-c4ccccc4)oc4ccc(F)cc4c3=O)cc2)CCC1 [Example 1, 3-[4-(1-Amino-cyclobutyl)-phenyl]-6-fluoro-2-phenyl-chromen-4-one]	1 to 10 µM	1 to 10 µM	> 10 µM
